Laboratory results reported in patent publication US12383585B2, “Methods of treatment of infections using bacteria” (Decoy Biosystems, Inc., priority 2018, dated 2025).

Legend:
[1] = tested on: AAV/HBV (human HBV genome, genotype D); experiment: AAV/HBV mouse model, long-term HBV inhibition with indomethacin (Example 5); assay type: in vivo, C57BL/6 mouse; conditions: for inhibition of HBV DNA production (plasma): all groups given indomethacin 10 μg/mL in drinking water, ETV 0.1 mg/kg
Method: This experiment was conducted in order to determine if a non-steroidal anti-inflammatory drug (NSAID) could enhance anti-viral activity by Decoy bacteria, if the anti-viral activity of Decoy is lost after cessation of treatment, and the potential toxic effects of ETV, Decoy and ETV+Decoy treatment. The experiment was carried out as described in Example 4, except that the AAV/HBV virus was injected at day −29, relative to start of dosing. HBV-DNA, HBsAg and HBeAg levels in plasma were determined on days −15, −8 and −1, relative to start of dosing on day 0, and the ETV dose was increased to 0.1 mg/kg. In addition, all groups represented in FIGS. 3, 4, 5 and 6 were administered indomethacin (NSAID) daily (10 μg/mL in drinking water). Dosing was carried out for 5 weeks as in Example 4, with plasma levels of HBV-DNA, HBsAg and HBeAg determined weekly, as well as every other week for 27 weeks after cessation of treatment. Inhibitory activity was determined by comparing treated groups at each time point to the control (indomethacin alone) group at the same time-point by unpaired, non-parametric Mann-Whitney statistical analysis.
Upon termination, the liver from each mouse was divided into multiple sections, snap frozen in liquid nitrogen immediately upon collection and stored at −80° C. Liver sections were used for HBV DNA detection and additional sections from each mouse liver were fixed in 10% neutral buffered formalin (NB F) for about 24 hours, then transferred for routine dehydration and paraffin embedding. Paraffin blocks were sectioned for hematoxylin-eosin (H&E) staining and pathology analysis, as well immunohistochemistry (IHC) analysis for HBsAg and HBcAg.

[2] = tested on: AAV/HBV (human HBV genome, genotype D); experiment: AAV/HBV mouse model, HBV inhibition (Example 4); assay type: in vivo, C57BL/6 mouse; conditions: for inhibition of HBeAg production (plasma): day 28 of dosing (Day 59 after infection)
From the text: Adeno-associated virus/hepatitis B virus (AAV/HBV) is a recombinant AAV carrying replicable human HBV genome. Taking the advantage of the highly hepatotropic feature of genotype 8 AAV, the human HBV genome can be efficiently delivered to mouse liver cells. Infection of immune competent mice with AAV/HBV can result in long term HBV viremia, including release of human HBV virions, HBsAg and HBeAg into the blood, which mimics chronic HBV infection in patients. The AAV/HBV model can be used to evaluate the in vivo activity of various types of anti-HBV agents. Furthermore, this is an appropriate model for evaluation of immune modulators (see, for example Huang et al., Int. J. Onc. v39 pp1511-1519, 2011).
rAAV8-1.3HBV, genotype D, was purchased from Beijing FivePlus Molecular Medicine Institute (batch number A2018092406). The stock virus of 1×10^12 viral genome (v.g.)/mL was diluted to 5×10^11 v.g./mL with sterile phosphate-buffered saline (PBS) and 1×10^11 v.g. AAV/HBV in 200 μL was injected per 5 week old male C57BL/6 mouse 31 days prior to the initiation of dosing (day −31).
Blood samples (˜100 μL) were collected into K2-EDTA coated tubes via submandibular bleeding on days −17, −7 and −4. The samples were centrifuged at 7,000 g (4° C.) for 10 minutes for plasma collection. At least 40 μL plasma samples were prepared to determine the level of HBV-DNA by qPCR, and the levels of HBs Antigen (HBsAg) and HBe Antigen (HBeAg) by enzyme-linked immunosorbent assay (ELISA). Remaining plasma samples were stored at −80° C. for post-life assays. Based on the plasma levels of HBV DNA, HBsAg, HBeAg and body weights on days −17, −7 and −4, mice with qualified viral infection levels were selected and randomly divided into 7 groups with 5 mice in each group on day −1. All mice were evenly distributed in each group, to ensure no significant difference existed between each group in terms of HBV DNA, HBsAg, HBeAg level and body weight on day −4.
Animal groups were untreated, treated with Entecavir (ETV) at 0.005 mg/kg orally (p.o.) daily on days 0-34, Decoy at 2×10^8 killed bacteria per mouse administered tail vein i.v. on days 1, 2, 8, 9, 15, 16, 22, 23, 29 and 30, or ETV and Decoy. Plasma samples were obtained weekly an analyzed for HBV-DNA, HBsAg and HBeAg as described above.

[3] = tested on: human peripheral blood mononuclear cells (PBMCs); experiment: Induction of cytokine secretion from human PBMCs in vitro (Luminex); assay type: cell-based; conditions: full titration peak mean
Method: Supernatants were harvested by centrifuging plates at 1,000 rpm for 10 minutes and stored at −80° C. Luminex analysis of cytokine levels was carried out with Millipore Human Cytokine/Chemokine Magnetic Bead panels HCYTOMAG-60K and HSTCMAG-28SK. Levels of cytokines were interpolated off a standard curve using a […] non-linear regression analysis where the fit=(A+((B−A)/(1+(((B−E)/(E−A))*((x/C)^D))))). The interpolated data was normalized to vehicle control or unstimulated control and analyzed. PBMCs from fresh normal peripheral blood leukapheresis paks (ALLCells, Alameda, CA) were isolated using a Ficoll gradient (Ficoll-Paque PLUS, Cat #17-144-02, density 1.077+/−0.001 g/mL from GE Healthcare Bio-Sciences, Pittsburgh, PA). The bacteria vehicle was phosphate-buffered saline (PBS) with no calcium and 2 mM MgCl2.
The experiment was carried out as described for Table 1.

C=C1[C@H](CO)[C@@H](O)C[C@@H]1n1cnc2c(=O)[nH]c(N)nc21 [ETV, Entecavir]
inhibition of HBV DNA at termination (day 253) ([1]; 27 weeks after cessation of treatment, in the presence of indomethacin): Statistically significant inhibition of HBV DNA was lost | inhibition of HBeAg expression in mouse livers ([1]; 27 weeks after the cessation of treatment, in the presence of indomethacin): not | body weight loss ([1]; ETV treatment 0.1 mg/kg, with indomethacin): No body weight loss | inhibition of HBV DNA production (plasma) [1]: inhibited | time to significant inhibition of HBV DNA production after initiation of dosing ([2]; ETV 0.005 mg/kg p.o. daily): ≤ 3 days | mice with plasma HBV DNA down to the lower limit of quantitation (120 copies/μL plasma) ([2]; by day 28 of dosing (day 59 after infection)): 5/5 | inhibition of HBeAg production (plasma) ([2]; without indomethacin): No inhibition | inhibition of HBeAg production (plasma) ([2]; without indomethacin, listed as Entecavir): not | inhibition of HBV DNA production (plasma) ([2]; vs no treatment group, ETV 0.005 mg/kg p.o. daily, Decoy 2×10^8 killed bacteria i.v. twice weekly): significantly inhibited | inhibition of HBsAg production (plasma) ([2]; without indomethacin): No inhibition

CpG ODN 2006
GM-CSF induction [3]: 0 pg/mL | IFNγ induction [3]: 7 pg/mL | IL-1β induction [3]: 1 pg/mL | IL-6 induction [3]: 241 pg/mL | IL-8 induction [3]: 2,436 pg/mL | IL-10 induction [3]: 374 pg/mL | IL-12p70 induction [3]: 4 pg/mL | TNFα induction [3]: 51 pg/mL

COc1ccc2c(c1)c(CC(=O)O)c(C)n2C(=O)c1ccc(Cl)cc1 [indomethacin]
inhibition of HBV DNA production (plasma) [1]: did not inhibit

Poly(I:C)
GM-CSF induction [3]: 0 pg/mL | IFNγ induction [3]: 103 pg/mL | IL-1β induction [3]: 22 pg/mL | IL-6 induction [3]: 129 pg/mL | IL-8 induction [3]: 1,452 pg/mL | IL-10 induction [3]: 8 pg/mL | IL-12p70 induction [3]: 18 pg/mL | TNFα induction [3]: 208 pg/mL
